From patent US20040106198A1, “Inhibition of peptide cleavage in plants” (LARGE SCALE BIOLOGY CORPORATION, priority 2002, published 2004)
Where two headings read alike, the source gives them in different places. Numbered stars: 1 amine (or outer) side, 2 acyl side, 3 side chain; on linkers, the order of the positions; unused ones are H or OH. Square brackets hold non-standard residues; d marks the D form. Peptide text beside a SMILES is read from it. * marks the point of attachment. Sta = CC(C)C[C@H](N)[C@@H](O)CC(=O)O; pNA = O=[N+]([O-])c1ccc(N*)cc1; Suc = O=C(CCC(=O)[*:2])[*:1]; Isovaleryl = CC(C)CC(=O)*; Cbz = O=C(OCc1ccccc1)*; CK = not defined here

What was measured:
Nicotianalisin [1] = experiment: Protease inhibitor study in plant interstitial fluid (IF), N-Suc-AAPL-p-NA hydrolysis; assay type: biochemical, N. benthamiana
Protocol: To further classify the protease activity in the plant IF extract, protease inhibitor studies were performed. Standard inhibitors from different classes of proteases were used. An aliquot of the plant IF was incubated with each inhibitor for 30 min at 24° C., and the free enzyme was incubated under the same conditions without the inhibitor to serve as the control. The protease activity after the inhibition was measured and compared to the control.
To further characterize the plant proteolytic activity, experiments were initiated to partially purify the plant protease. In order to purify the protease, enzyme assays were developed and utilized. Proteolytic activity was monitored by the hydrolysis of a synthetic substrate, hydrolysis of a protein substrate and/or by an in situ gel procedure. […] The absorbance of the p-nitroaniline (p-NA) produced was measured at 410 nm (Erlanger, Kokowsky, and Cohen, 1961; Nakajima et al., 1979). The activity unit was defined as the amount of the enzyme capable of producing 1 nanomole of p-NA per min under the conditions of the experiment with an absorption coefficient of […] (Erlanger, Kokowsky, and Cohen, 1961; Nakajima et al., 1979). The rate of hydrolysis of N-Succinyl-Ala-Ala-Pro-Phe-thiobenzylester SEQ ID NO: in 10% DMSO and 4,4′-dithiodipyridine was monitored at […] using an extinction coefficient of 19800 cm^−1 M^−1 (Barrett and Kirschke, 1981). General proteolytic activity was measured with 2.0% azocasein or 2.0% azoalbumin and Fluorescein Isothiocyanate Casein (FITC-casein; (Twining, 1984)). The reaction was started by addition of 10 μl of protease solution to 70 μl of reaction mixture (100 mM buffer Tris-HCl pH 7.0 containing 0.04% FTC-casein, 0.5 mM DDT, 2 mM CaCl2) and incubation for 1 hr at 37° C. The reaction was stopped by addition of 80 μl of 10% TCA and incubation for 15 min at −20° C. The mixture was centrifuged for 10 min at 10,000×g at 4° C. 10 μl of the supernatant solution was added to 150 μl Tris-HCl (0.5 M, pH 8.5), and fluorescence was measured at an excitation wavelength of 490 nm and an emission wavelength of 525 nm using a fluorescence plate reader ((Erlanger, Kokowsky, and Cohen, 1961; Nakajima et al., 1979), Molecular Devices).

CD34+ = CD34+ proliferation assays; assay type: cell-based; conditions: proteins purified from plants
Protocol: The vectors were used to inoculate plant leaves of different sets of plants as described in the examples above. Both plant homogenates and interstitial fluid were extracted as described above. hSCF and pSCF were each purified from 27 plants to yield 0.85 mg (˜15 mg/kg) and 2.5 mg (˜45 mg/kg) of protein respectively.

plant protease = experiment: In vitro stability of recombinant hGH in IF with protease inhibitors (Western); assay type: biochemical, N. benthamiana; conditions: 24 hours at 24° C. followed by 120 hours at 5° C.; anti-hGH Western
Protocol: FIG. 1 depicts the in vitro stability of expressed recombinant human growth hormone protein (hereafter “hGH”) in the interstitial fluid (hereafter “IF”) following the addition of protease inhibitors. Recombinant hGH protein was expressed in N. benthamiana using a tobacco mosaic virus (hereafter “TMV”) vector expression system. IF was prepared from plant leaves at 9 days post-inoculation and incubated for 24 hours at 24° C. followed by 120 hours at 5° C. with or without the addition of protease inhibitors. Fifteen microliters of the IF extract was separated by SDS-PAGE and the gel prepared for Western analysis. The levels of hGH protein in the IF of the time zero control (lane a), in absence of inhibitor (lane b), and in the presence of protease inhibitors chymostatin (lane c) and PI-I (lane d), were detected using anti-hGH antibody.
When a plant viral vector expression system (Kumagai et al., 1995; McCormick et al., 1999) was utilized to express the secreted, mammalian recombinant protein, hGH, significant degradation of the target protein was observed. […]
Aliquots of the plant IF fraction were separated by SDS-PAGE and levels of hGH protein were detected by immunoblot analysis using anti-hGH polyclonal antibody (Sigma, St. Louis, Mo.). […]
At zero time, prior to the addition of any inhibitors, both full length and hGH cleavage products were detected (FIG. 1). […]

Nicotianalisin [2] = experiment: Hydrolysis of synthetic 4-nitroanilide peptide substrates by purified protease
Protocol: Nicotianalisin enzyme specificity. The enzyme specificity of Nicotianalisin was assessed by monitoring the cleavage efficiency of numerous chromogenic synthetic substrates. An aliquot of the purified protease was added to an assay mixture containing 0.1 M Tris-HCl, pH 7.0, 5 mM CaCl2, 0.5-2.7% dimethylformamide, and 0.3 to 2 mM synthetic substrate and allowed to proceed for 30 min at 37° C. The released p-NA moiety was measured at 410 mu as previously described.
Hydrolysis of homologous synthetic 4-nitroanilide peptides by Nicotianalisin. Enzymatic assays were conducted at 0.3 mM substrate concentration in 0.1 M Tris-HCl, pH 7.0, containing 5 mM CaCl2, and 0.5-2.7% dimethylformamide at 25° C.

Nicotianalisin [3] = experiment: In situ Zymogram gelatin gel assay of partially purified protease; assay type: biochemical, N. benthamiana; conditions: 2 mM PMSF for 1 hr at 24° C.; partially purified fraction
Protocol: FIG. 2 depicts the inhibition of Nicotianalisin by PMSF protease inhibitor using Zymogram gelatin gel analysis. Plant extracts containing Nicotianalisin activity were partially purified by ion-exchange chromatography at pH 5.2, and fractions with peak protease activity were treated with or without 2 mM PMSF for 1 hr at 24° C. Following treatment, aliquots were removed and inhibitory activity assessed on Zymogram gels.
The in situ protease gel assay was carried out in pre-cast 10% Zymogram gels (Invitrogen, Carlsbad, Calif.) as per manufacturer's protocols.
Following the initial observation that the plant protease activity was inhibited by both chymostatin and potato PI-I (FIG. 1), experiments were initiated to partially purify the protease from N. benthamiana leaves. Plants were grown and IF extracts were prepared as described above. The IF was filtered through a 0.8μ Sartorius GF membrane to remove most of the Ribulose-1,5-bisphosphate carboxylase/oxygenase (Rubisco) and green pigments. The diafiltered extract was separated further by SP sepharose (Pharmacia) ion exchange chromatography at pH 5.2.

[4] = IF from viral vector-infected plants incubated with inhibitor 30 min at 24° C., 0.3 mM N-Suc-AAPL-p-NA

Compound | % Inhibition (Nicotianalisin [1]; [4]) [%] | other results
Cc1ccc(S(=O)(=O)N[C@@H](CCCCN)C(=O)CCl)cc1 [TLCK] |  | % Inhibition (Nicotianalisin [1]): 0%
O=c1oc(Cl)c(Cl)c2ccccc12 [3-4 DCI] | 100 | 
Cc1ccc(S(=O)(=O)N[C@@H](Cc2ccccc2)C(=O)CCl)cc1 [TPCK] | 38 | 
hSCF: human Stem Cell growth Factor expressed in plants from GENEWARE vector |  | biological activity in CD34+ proliferation assays (CD34+): biologically active
Aprotinin | 46 | 
CC(C)C[C@H](NC(=O)[C@H]1O[C@@H]1C(=O)O)C(=O)NCCCCN=C(N)N [E-64] | 5 | 
CC(C)CC(=O)N[C@H](C(=O)N[C@H](C(=O)N[C@@H](CC(C)C)[C@@H](O)CC(=O)N[C@@H](C)C(=O)N[C@@H](CC(C)C)[C@@H](O)CC(=O)O)C(C)C)C(C)C [Pepstatin A] (Isovaleryl-VV[Sta]A[Sta]-OH) | 6 | 
CC(C)C[C@H](NC(=O)[C@@H](NC(=O)N[C@@H](Cc1ccccc1)C(=O)O)[C@@H]1CCN=C(N)N1)C(=O)N[C@H](C=O)Cc1ccccc1 [Chymostatin] | 100 | inhibition of degradation of hGH protein in IF extract (plant protease): inhibition of further degradation of the intact hGH protein was observed
O=C(O)CN(CCN(CC(=O)O)CC(=O)O)CC(=O)O [EDTA] | 5 | 
N-Succinyl-Alanine-Alanine-Proline-Phenylalanine-para-nitroanilide [N-Suc-AAPF-pNA] |  | preferential cleavage of synthetic peptide substrates (Nicotianalisin [2]): preferentially cleaved
O=S(=O)(F)Cc1ccccc1 [PMSF, phenylmethanesulfonyl fluoride] | 100 | reduction of protease activity on Zymogram gelatin gel (Nicotianalisin [3]): significant reduction of protease activity
CC(=O)N[C@@H](CC(C)C)C(=O)N[C@@H](CC(C)C)C(=O)N[C@H](C=O)CCCNC(=N)N [Leupeptin] | 18 | 
N-Suc-AAPM-pNA: synthetic 4-nitroanilide peptide substrate (SMILES CSCC[C@H](NC(=O)[C@@H]1CCCN1C(=O)[C@H](C)NC(=O)[C@H](C)NC(=O)CCC(=O)O)C(=O)Nc1ccc([N+](=O)[O-])cc1) |  | preferential cleavage of synthetic peptide substrates (Nicotianalisin [2]): preferentially cleaved
CC(C)C[C@@H](N)[C@H](O)C(=O)N[C@H](C(=O)N[C@H](C(=O)N[C@@H](CC(=O)O)C(=O)O)C(C)C)C(C)C [Amastatin] | 5 | 
CC(C)C[C@H](NC(=O)N[C@H](C(=O)N[C@@H](CCC(N)=O)C(=O)N[C@@H](C)C=O)[C@@H]1CCNC(=N)N1)C(=O)O [Elastinal] | 41 | 
N-Succinyl-Alanine-Alanine-Proline-Leucine-para-nitroanilide [N-Suc-AAPL-pNA] |  | preferential cleavage of synthetic peptide substrates (Nicotianalisin [2]): preferentially cleaved
N-CBZ-GGF-CK: irreversible serine protease inhibitor, active site titrant (Cbz-Gly-Gly-Phe-{CK}; reading uncertain; also: printed as N-CBZ-GGF-CK) | 70 | 
c1cnc2c(c1)ccc1cccnc12 [1-10 Phenantrolin] | 11 | 
